Laboratory results: US9751887B2, “Imidazo[1,2-b]pyridazine derivatives as kinase inhibitors” (Daiichi Sankyo Company, Limited, priority 2012, dated 2017)
Each block holds one compound with its values, some of them ahead of it.

What was measured:
[1] = system: HCC78 cells having ROS1 fusion gene; assay: HCC78 cell growth assay (CellTiter-Glo); type: cell-based; settings: Homo sapiens, HCC78, 72 h, 72 hours culture, 2% FBS medium, luminescence, four separate measurements; read-out: growth inhibitory effect on HCC78 cells having ROS1 fusion gene IC50
ROS1 [2] = molecular target: T1, ROS1 (Homo sapiens, UniProt P08922); assay: ROS1 kinase inhibitory activity evaluation (mobility shift, EZ Reader II); type: biochemical; settings: ROS1 25 pg/μL, FL-Peptide 22 substrate, three separate measurements
T1 construct: purchased Carna Biosciences 08-163
Protocol: Next, a substrate reaction solution was prepared. […] Then, the reaction stop solution was added thereto at a concentration of 40 μL/well. Substrate phosphorylation intensity was measured using EZ Reader II (Caliper Life Sciences).

ROS1 [3] = molecular target: T1, ROS1; assay: ROS1 autophosphorylation inhibitory activity evaluation (ADP-Glo); type: biochemical; settings: 200 nM inactive ROS1, ATP 1 mM, 25° C. 1.5 hours, ADP generated, four separate measurements
How it was run: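 IC50 was derived by curve fitting of ADP output measured with ADP-Glo reagents. The output reflects ROS1 self-phosphorylation over 1.5 hours at 25° C. Buffer was HEPES pH 7.5 with MgCl2, Brij-58 and DTT, and ATP was 1 mM final.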

T1 sequence (P08922 28-2347): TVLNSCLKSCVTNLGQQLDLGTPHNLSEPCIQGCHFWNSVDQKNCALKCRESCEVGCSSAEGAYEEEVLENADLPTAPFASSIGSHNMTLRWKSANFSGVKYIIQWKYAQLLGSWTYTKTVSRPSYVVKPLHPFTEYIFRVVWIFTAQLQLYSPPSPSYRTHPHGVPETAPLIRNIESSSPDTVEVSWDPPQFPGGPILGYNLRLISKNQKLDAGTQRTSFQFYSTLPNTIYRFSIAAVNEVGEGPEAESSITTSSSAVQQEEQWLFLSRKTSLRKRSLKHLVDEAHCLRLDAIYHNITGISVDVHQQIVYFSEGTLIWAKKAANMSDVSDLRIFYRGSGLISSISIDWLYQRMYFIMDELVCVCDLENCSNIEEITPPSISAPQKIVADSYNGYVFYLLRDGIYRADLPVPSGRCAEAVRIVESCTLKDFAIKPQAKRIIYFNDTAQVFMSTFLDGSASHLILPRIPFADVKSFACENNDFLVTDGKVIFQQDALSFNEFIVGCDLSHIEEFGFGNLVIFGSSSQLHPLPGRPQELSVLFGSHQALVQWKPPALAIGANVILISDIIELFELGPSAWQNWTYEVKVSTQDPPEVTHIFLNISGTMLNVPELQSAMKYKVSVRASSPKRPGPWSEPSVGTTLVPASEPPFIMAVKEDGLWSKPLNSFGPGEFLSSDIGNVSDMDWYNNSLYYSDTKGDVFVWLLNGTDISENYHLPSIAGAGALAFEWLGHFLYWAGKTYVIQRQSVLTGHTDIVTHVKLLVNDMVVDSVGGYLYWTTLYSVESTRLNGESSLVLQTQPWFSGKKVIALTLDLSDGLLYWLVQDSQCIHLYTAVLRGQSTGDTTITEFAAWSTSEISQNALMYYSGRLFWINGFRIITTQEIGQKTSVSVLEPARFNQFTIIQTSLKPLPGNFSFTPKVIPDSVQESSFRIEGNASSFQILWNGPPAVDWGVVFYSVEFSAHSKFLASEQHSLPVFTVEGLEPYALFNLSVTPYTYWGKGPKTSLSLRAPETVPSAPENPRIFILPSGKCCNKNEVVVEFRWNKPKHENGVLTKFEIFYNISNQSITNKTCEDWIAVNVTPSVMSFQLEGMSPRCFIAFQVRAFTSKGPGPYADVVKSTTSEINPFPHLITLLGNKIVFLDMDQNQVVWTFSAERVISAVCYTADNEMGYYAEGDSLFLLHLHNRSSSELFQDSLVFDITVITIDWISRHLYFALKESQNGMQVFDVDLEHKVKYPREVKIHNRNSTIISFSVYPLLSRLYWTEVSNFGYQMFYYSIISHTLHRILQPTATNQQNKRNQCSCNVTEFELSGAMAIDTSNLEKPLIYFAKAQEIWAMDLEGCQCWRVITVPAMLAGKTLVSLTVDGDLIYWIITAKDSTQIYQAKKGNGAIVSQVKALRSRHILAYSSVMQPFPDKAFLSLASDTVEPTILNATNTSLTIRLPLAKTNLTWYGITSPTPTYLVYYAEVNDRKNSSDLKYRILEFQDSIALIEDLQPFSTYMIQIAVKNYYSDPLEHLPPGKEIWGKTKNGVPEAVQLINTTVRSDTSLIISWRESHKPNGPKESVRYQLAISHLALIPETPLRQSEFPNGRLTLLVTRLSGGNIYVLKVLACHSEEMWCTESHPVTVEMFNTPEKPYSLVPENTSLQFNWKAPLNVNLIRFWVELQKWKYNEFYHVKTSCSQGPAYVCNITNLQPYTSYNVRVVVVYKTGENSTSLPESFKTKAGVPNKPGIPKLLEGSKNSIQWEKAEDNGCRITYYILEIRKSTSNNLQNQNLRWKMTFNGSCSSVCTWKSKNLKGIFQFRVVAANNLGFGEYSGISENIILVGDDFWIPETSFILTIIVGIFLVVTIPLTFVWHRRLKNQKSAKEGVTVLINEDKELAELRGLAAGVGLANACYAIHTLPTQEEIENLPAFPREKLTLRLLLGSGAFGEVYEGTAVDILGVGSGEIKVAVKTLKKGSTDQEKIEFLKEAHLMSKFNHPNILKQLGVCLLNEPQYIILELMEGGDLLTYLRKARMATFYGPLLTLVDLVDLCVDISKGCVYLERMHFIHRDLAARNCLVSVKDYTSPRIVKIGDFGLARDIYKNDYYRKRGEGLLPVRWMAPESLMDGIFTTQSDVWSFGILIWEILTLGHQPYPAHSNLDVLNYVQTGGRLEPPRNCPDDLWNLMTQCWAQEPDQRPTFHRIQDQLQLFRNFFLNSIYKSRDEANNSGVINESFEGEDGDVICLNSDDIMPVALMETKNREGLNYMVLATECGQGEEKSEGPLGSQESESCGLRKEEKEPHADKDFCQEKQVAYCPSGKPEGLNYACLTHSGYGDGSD

Structure (SMILES): C[C@H](N)COc1ccc(-c2cnc3ccc(N[C@H](C)c4cccc(F)c4)nn23)cn1 [Example 63, 3-[6-[(2S)-2-Aminopropoxy]-3-pyridyl]-N-[(1R)-1-(3-fluorophenyl)ethyl]imidazo[1,2-b]pyridazin-6-amine]
- IC50 [1]: < 20 nM
- IC50 (ROS1 [2]): < 1 nM
- IC50 (ROS1 [3]): < 20 nM

Structure (SMILES): C[C@@H](Nc1ccc2ncc(-c3ccc(F)c(OC[C@@H]4CCN4)c3)n2n1)c1cccc(F)c1 [Example 64, 3-[3-[[(2S)-Azetidin-2-yl]methoxy]-4-fluoro-phenyl]-N-[(1R)-1-(3-fluorophenyl)ethyl]imidazo[1,2-b]pyridazin-6-amine]
- IC50 [1]: 100 to 600 nM
- IC50 (ROS1 [2]): 1 to 10 nM
- IC50 (ROS1 [3]): 100 to 150 nM

Structure (SMILES): C[C@@H](Oc1ccc2ncc(-c3ccc(OC4CCNCC4)cc3)n2n1)c1cccc(F)c1 [Example 15, 6-[(1R)-1-(3-Fluorophenyl)ethoxy]-3-[4-(4-piperidyloxy)phenyl]imidazo[1,2-b]pyridazine]
- IC50 [1]: 100 to 600 nM
- IC50 (ROS1 [2]): 1 to 10 nM
- IC50 (ROS1 [3]): 20 to 100 nM

Structure (SMILES): C[C@H](N)COc1cccc(-c2cnc3ccc(N[C@H](C)c4cccc(F)c4)nn23)c1 [Example 65, 3-[3-[(2S)-2-Aminopropoxy]phenyl]-N-[(1R)-1-(3-fluorophenyl)ethyl]imidazo[1,2-b]pyridazin-6-amine]
- IC50 [1]: 20 to 100 nM
- IC50 (ROS1 [2]): 1 to 10 nM
- IC50 (ROS1 [3]): < 20 nM

Structure (SMILES): C[C@@H](Nc1ccc2ncc(-c3ccc(OCCCN(C)C)cc3)n2n1)c1cccc(F)c1 [Example 70, 3-[4-[3-(Dimethylamino)propoxy]phenyl]-N-[(1R)-1-(3-fluorophenyl)ethyl]imidazo[1,2-b]pyridazin-6-amine]
- IC50 [1]: 20 to 100 nM
- IC50 (ROS1 [2]): < 1 nM
- IC50 (ROS1 [3]): < 20 nM

Structure (SMILES): C[C@@H](Nc1ccc2ncc(-c3ccc(OC[C@@H]4CCCN4)cc3)n2n1)c1ccccc1 [Example 19, N-[(1R)-1-Phenylethyl]-3-[4-[[(2S)-pyrrolidin-2-yl]methoxy]phenyl]imidazo[1,2-b]pyridazin-6-amine]
- IC50 [1]: 100 to 600 nM
- IC50 (ROS1 [2]): 1 to 10 nM
- IC50 (ROS1 [3]): < 20 nM

Structure (SMILES): C[C@@H](Nc1ccc2ncc(-c3ccc(OCCN(C)C)cc3)n2n1)c1cccc(F)c1 [Example 69, 3-[4-(2-Dimethylaminoethoxy)phenyl]-N-[(1R)-1-(3-fluorophenyl)ethyl]imidazo[1,2-b]pyridazin-6-amine]
- IC50 [1]: < 20 nM
- IC50 (ROS1 [2]): < 1 nM
- IC50 (ROS1 [3]): < 20 nM

Structure (SMILES): C[C@@H](Nc1ccc2ncc(-c3ccc(O[C@H]4C[C@@H](N)C4)cc3)n2n1)c1cccc(F)c1 [Example 61, 3-[4-(3-cis-Aminocyclobutoxy)phenyl]-N-[(1R)-1-(3-fluorophenyl)ethyl]imidazo[1,2-b]pyridazin-6-amine]
- IC50 [1]: 20 to 100 nM
- IC50 (ROS1 [2]): 1 to 10 nM
- IC50 (ROS1 [3]): < 20 nM

Structure (SMILES): C[C@@H](Nc1ccc2ncc(-c3ccc(OCCNCCO)cc3)n2n1)c1cccc(F)c1 [Example 42, 2-[2-[4-[6-[[(1R)-1-(3-Fluorophenyl)ethyl]amino]imidazo[1,2-b]pyridazin-3-yl]phenoxy]ethylamino]ethanol]
- IC50 [1]: < 20 nM
- IC50 (ROS1 [2]): < 1 nM
- IC50 (ROS1 [3]): < 20 nM

Structure (SMILES): Fc1cccc(COc2ccc3ncc(-c4ccc(O[C@@H]5CCNC5)cc4)n3n2)c1 [Example 13, 6-[(3-Fluorophenyl)methoxy]-3-[4-[(3R)-pyrrolidin-3-yl]oxyphenyl]imidazo[1,2-b]pyridazine]
- IC50 [1]: 100 to 600 nM
- IC50 (ROS1 [2]): 1 to 10 nM
- IC50 (ROS1 [3]): 100 to 150 nM

Structure (SMILES): CNCCOc1cccc(-c2cnc3ccc(N[C@H](C)c4cccc(F)c4)nn23)c1 [Example 58, N-[(1R)-1-(3-Fluorophenyl)ethyl]-3-[3-[2-(methylamino)ethoxy]phenyl]imidazo[1,2-b]pyridazin-6-amine]
- IC50 [1]: 20 to 100 nM
- IC50 (ROS1 [2]): 1 to 10 nM
- IC50 (ROS1 [3]): < 20 nM

Structure (SMILES): C[C@@H](Nc1ccc2ncc(-c3cccc(OCCN)c3)n2n1)c1cccc(F)c1 [Example 67, 3-[3-(2-Aminoethoxy)phenyl]-N-[(1R)-1-(3-fluorophenyl)ethyl]imidazo[1,2-b]pyridazin-6-amine]
- IC50 [1]: 20 to 100 nM
- IC50 (ROS1 [2]): 1 to 10 nM
- IC50 (ROS1 [3]): < 20 nM

Structure (SMILES): C[C@@H](N)COc1ccc(-c2cnc3ccc(N[C@H](C)c4cccc(F)c4)nn23)cn1 [Example 53, 3-[6-[(2R)-2-Aminopropoxy]-3-pyridyl]-N-[(1R)-1-(3-fluorophenyl)ethyl]imidazo[1,2-b]pyridazin-6-amine]
- IC50 [1]: < 20 nM
- IC50 (ROS1 [2]): < 1 nM
- IC50 (ROS1 [3]): < 20 nM

Structure (SMILES): C[C@@H](Nc1ccc2ncc(-c3ccc(OCCN)cc3)n2n1)c1cccc(F)c1 [Example 26, 3-[4-(2-Aminoethoxy)phenyl]-N-[(1R)-1-(3-fluorophenyl)ethyl]imidazo[1,2-b]pyridazin-6-amine]
- IC50 [1]: < 20 nM
- IC50 (ROS1 [2]): < 1 nM
- IC50 (ROS1 [3]): < 20 nM

Structure (SMILES): C[C@H](O)[C@@H](N)COc1ccc(-c2cnc3ccc(N[C@H](C)c4cccc(F)c4)nn23)cc1 [Example 55, (2S,3S)-3-Amino-4-[4-[6-[[(1R)-1-(3-fluorophenyl)ethyl]amino]imidazo[1,2-b]pyridazin-3-yl]phenoxy]butan-2-ol]
- IC50 [1]: < 20 nM
- IC50 (ROS1 [2]): < 1 nM
- IC50 (ROS1 [3]): < 20 nM

Structure (SMILES): c1ccc(CNc2ccc3ncc(-c4ccc(OC[C@@H]5CCCN5)cc4)n3n2)cc1 [Example 1, N-Benzyl-3-[4-[[(2S)-pyrrolidin-2-yl]methoxy]phenyl]imidazo[1,2-b]pyridazin-6-amine]
- IC50 [1]: 20 to 100 nM
- IC50 (ROS1 [2]): 1 to 10 nM
- IC50 (ROS1 [3]): 20 to 100 nM

Results, then the compound that gave them:

- IC50 [1]: 20 to 100 nM
- IC50 (ROS1 [2]): 10 to 60 nM
- IC50 (ROS1 [3]): 100 to 150 nM
Structure (SMILES): C[C@@H](Oc1ccc2ncc(-c3ccc(N4C[C@@H](N)CC4=O)c(F)c3)n2n1)c1cncc(F)c1 [Example 109, (4S)-4-Amino-1-[2-fluoro-4-[6-[(1R)-1-(5-fluoro-3-pyridyl)ethoxy]imidazo[1,2-b]pyridazin-3-yl]phenyl]pyrrolidin-2-one]

- IC50 [1]: 20 to 100 nM
- IC50 (ROS1 [2]): 1 to 10 nM
- IC50 (ROS1 [3]): < 20 nM
Structure (SMILES): C[C@@H](Oc1ccc2ncc(-c3ccc(N4C[C@H](N)CC4=O)cc3)n2n1)c1cccc(F)c1 [Example 78, (4R)-4-Amino-1-[4-[6-[(1R)-1-(3-fluorophenyl)ethoxy]imidazo[1,2-b]pyridazin-3-yl]phenyl]pyrrolidin-2-one]

- IC50 [1]: 100 to 600 nM
- IC50 (ROS1 [2]): 1 to 10 nM
- IC50 (ROS1 [3]): < 20 nM
Structure (SMILES): CC(Oc1ccc2ncc(-c3ccc(N4C[C@@H](N)CC4=O)cc3)n2n1)c1cccc(F)c1F (stereo partly drawn) [Example 102, (4S)-4-Amino-1-[4-[6-[1-(2,3-difluorophenyl)ethoxy]imidazo[1,2-b]pyridazin-3-yl]phenyl]pyrrolidin-2-one]

- IC50 [1]: 20 to 100 nM
- IC50 (ROS1 [2]): 1 to 10 nM
- IC50 (ROS1 [3]): < 20 nM
Structure (SMILES): C[C@@H](Nc1ccc2ncc(-c3cccc(N4C[C@@H](N)CC4=O)c3)n2n1)c1cccc(F)c1 [Example 91, (4S)-4-Amino-1-[3-[6-[[(1R)-1-(3-fluorophenyl)ethyl]amino]imidazo[1,2-b]pyridazin-3-yl]phenyl]pyrrolidin-2-one]

- IC50 [1]: 20 to 100 nM
- IC50 (ROS1 [2]): 1 to 10 nM
- IC50 (ROS1 [3]): 20 to 100 nM
Structure (SMILES): CN(Cc1cccc(F)c1)c1ccc2ncc(-c3ccc(N4CC(C)(N)CC4=O)cc3)n2n1 (stereo not drawn) [Example 84, 4-Amino-1-[4-[6-[(3-fluorophenyl)methyl-methylamino]imidazo[1,2-b]pyridazin-3-yl]phenyl]-4-methylpyrrolidin-2-one]

- IC50 [1]: 100 to 600 nM
- IC50 (ROS1 [2]): 1 to 10 nM
- IC50 (ROS1 [3]): 20 to 100 nM
Structure (SMILES): CCN(Cc1ccccc1)c1ccc2ncc(-c3ccc(N4C[C@@H](N)CC4=O)cc3)n2n1 [Example 95, (4S)-4-Amino-1-[4-[6-[benzo(ethyl)amino]imidazo[1,2-b]pyridazin-3-yl]phenyl]pyrrolidin-2-one]

- IC50 [1]: 20 to 100 nM
- IC50 (ROS1 [2]): < 1 nM
- IC50 (ROS1 [3]): 20 to 100 nM
Structure (SMILES): CC1(N)CN(c2ccc(-c3cnc4ccc(OCc5cccc(F)c5)nn34)cc2)C(=O)C12CC2 (stereo not drawn) [Example 77, 7-Amino-5-[4-[6-[(3-fluorophenyl)methoxy]imidazo[1,2-b]pyridazin-3-yl]phenyl]-7-methyl-5-azaspiro[2.4]heptan-4-one]

- IC50 [1]: 20 to 100 nM
- IC50 (ROS1 [2]): 1 to 10 nM
- IC50 (ROS1 [3]): 20 to 100 nM
Structure (SMILES): CN(Cc1cncc(F)c1Cl)c1ccc2ncc(-c3ccc(N4C[C@@H](N)CC4=O)cc3)n2n1 [Example 126, (4S)-4-Amino-1-[4-[6-[(4-chloro-5-fluoro-3-pyridyl)methyl-methylamino]imidazo[1,2-b]pyridazin-3-yl]phenyl]pyrrolidin-2-one]

- IC50 [1]: 100 to 600 nM
- IC50 (ROS1 [2]): 1 to 10 nM
- IC50 (ROS1 [3]): 20 to 100 nM
Structure (SMILES): C[C@@H](Oc1ccc2ncc(-c3ccc(N4C[C@@H](N(C)C)CC4=O)cc3)n2n1)c1cccc(F)c1 [Example 135, (4S)-4-(Dimethylamino)-1-[4-[6-[(1R)-1-(3-fluorophenyl)ethoxy]imidazo[1,2-b]pyridazin-3-yl]phenyl]pyrrolidin-2-one]

- IC50 [1]: 20 to 100 nM
- IC50 (ROS1 [2]): 1 to 10 nM
- IC50 (ROS1 [3]): < 20 nM
Structure (SMILES): CCN(Cc1cccc(F)c1)c1ccc2ncc(-c3ccc(N4C[C@@H](N)CC4=O)cc3)n2n1 [Example 100]

- IC50 [1]: < 20 nM
- IC50 (ROS1 [2]): 1 to 10 nM
- IC50 (ROS1 [3]): < 20 nM
Structure (SMILES): C[C@@H](Nc1ccc2ncc(-c3ccc(OCCN(C)C)nc3)n2n1)c1cccc(F)c1 [Example 71, 3-[6-(2-Dimethylaminoethoxy)-3-pyridyl]-N-[(1R)-1-(3-fluorophenyl)ethyl]imidazo[1,2-b]pyridazin-6-amine]

- IC50 [1]: 100 to 600 nM
- IC50 (ROS1 [2]): 10 to 60 nM
- IC50 (ROS1 [3]): 20 to 100 nM
Structure (SMILES): Cc1cc(N2C[C@@H](N)CC2=O)ccc1-c1cnc2ccc(N[C@H](C)c3ccccc3)nn12 [Example 89, (4S)-4-Amino-1-[3-methyl-1-[6-[[(1R)-1-phenylethyl]amino]imidazo[1,2-b]yl]phenyl]pyrrolidin-2-one]
